{"source": "PubChem BioAssay AID256", "about": "(DTP/NCI, 2004)", "system": "CD2F1 mice, L1210 leukemia ip, survival T/C", "experiment": "NCI In Vivo Anticancer Drug Screen. Data for tumor model L1210 Leukemia (intraperitoneal) in CD2F1 (CDF1) mice", "details": "higher = longer survival", "in_short": "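Implant tumor; dose compound or vehicle; measure endpoint in both groups; report treated divided by control.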", "key": {"[1]": {"details": "endpoint: mean survival time, dose: 100.0 mg/kg/injection, schedule: Q04DX003 (ip), vehicle: saline with Tween-80"}, "[2]": {"details": "endpoint: mean survival time, dose: 200.0 mg/kg/injection, schedule: Q04DX003 (ip), vehicle: saline with Tween-80"}}, "note": "Several values for one entry are separate records, joined by “and”; a condition that tells them apart may be missing. Equal values may be shown once. Inconclusive results and toxic doses are left out.", "data": [{"smiles": "O=C(CCOP(=O)(NCCCl)NCCCl)c1ccccc1", "values": [{"measurement": "T/C", "setting": "endpoint: median survival time, dose: 62.5 mg/kg/injection, schedule: Q01DX001 (ip), vehicle: saline with Tween-80", "value": "117 % of control"}, {"measurement": "T/C", "setting": "endpoint: median survival time, dose: 125.0 mg/kg/injection, schedule: Q01DX001 (ip), vehicle: saline with Tween-80", "value": "166 % of control"}, {"measurement": "T/C", "setting": "endpoint: median survival time, dose: 250.0 mg/kg/injection, schedule: Q01DX001 (ip), vehicle: saline with Tween-80", "value": "165 % of control and 229 % of control"}, {"measurement": "T/C", "setting": "endpoint: median survival time, dose: 500.0 mg/kg/injection, schedule: Q01DX001 (ip), vehicle: saline with Tween-80", "value": "291 % of control"}]}, {"smiles": "N/C(=N/O)c1cn(C2OC(CO)C(O)C2O)c2nc[nH]c(=O)c12", "note": "(stereo not given)", "values": [{"measurement": "T/C", "setting": "endpoint: mean survival time, dose: 75.0 mg/kg/injection, schedule: Q01DX001 (ip), vehicle: water", "value": "119 % of control"}]}, {"smiles": "CCN(CC)N=Nc1ccccc1", "values": [{"measurement": "T/C", "setting": "endpoint: mean survival time, dose: 75.0 mg/kg/injection, schedule: Q01DX001 (ip), vehicle: saline", "value": "114 % of control"}]}, {"smiles": "CCCCCCC(O)CCCCCC", "values": [{"measurement": "T/C", "setting": "endpoint: mean survival time, dose: 100.0 mg/kg/injection, schedule: Q01DX009 (ip), vehicle: other", "value": "96 % of control"}, {"measurement": "T/C", "setting": "endpoint: mean survival time, dose: 100.0 mg/kg/injection, schedule: Q04DX003 (ip), vehicle: other", "value": "100 % of control"}, {"measurement": "T/C", "setting": "endpoint: mean survival time, dose: 200.0 mg/kg/injection, schedule: Q01DX009 (ip), vehicle: other", "value": "98 % of control"}, {"measurement": "T/C", "setting": "endpoint: mean survival time, dose: 200.0 mg/kg/injection, schedule: Q04DX003 (ip), vehicle: other", "value": "97 % of control"}, {"measurement": "T/C", "setting": "endpoint: mean survival time, dose: 400.0 mg/kg/injection, schedule: Q01DX009 (ip), vehicle: other", "value": "98 % of control"}, {"measurement": "T/C", "setting": "endpoint: mean survival time, dose: 400.0 mg/kg/injection, schedule: Q04DX003 (ip), vehicle: other", "value": "95 % of control"}]}, {"smiles": "O=C1C=CC(=O)N1c1ccc(Cl)cc1Cl", "values": [{"measurement": "T/C", "setting": "endpoint: mean survival time, dose: 12.5 mg/kg/injection, schedule: Q04DX003 (ip), vehicle: saline with Tween-80", "value": "103 % of control"}, {"measurement": "T/C", "setting": "endpoint: mean survival time, dose: 25.0 mg/kg/injection, schedule: Q04DX003 (ip), vehicle: saline with Tween-80", "value": "100 % of control"}]}, {"smiles": "CN(C)/N=N\\c1c(C(N)=O)ncn1C1OC(CO)C(O)C1O", "note": "(stereo not given)", "values": [{"measurement": "T/C", "setting": "endpoint: mean survival time, dose: 100.0 mg/kg/injection, schedule: Q01DX005 (ip), vehicle: saline", "value": "104 % of control"}, {"measurement": "T/C", "setting": "endpoint: mean survival time, dose: 200.0 mg/kg/injection, schedule: Q01DX005 (ip), vehicle: saline", "value": "95 % of control"}]}, {"smiles": "Nc1n[nH]c(=S)n1-c1ccccc1", "values": [{"measurement": "T/C", "setting": "endpoint: mean survival time, dose: 50.0 mg/kg/injection, schedule: Q01DX009 (ip), vehicle: acetone", "value": "98 % of control"}, {"measurement": "T/C", "setting": "endpoint: mean survival time, dose: 100.0 mg/kg/injection, schedule: Q01DX009 (ip), vehicle: acetone", "value": "93 % of control"}, {"measurement": "T/C", "setting": "endpoint: mean survival time, dose: 200.0 mg/kg/injection, schedule: Q01DX009 (ip), vehicle: acetone", "value": "98 % of control"}]}, {"smiles": "C[S+](C)CC(=O)c1ccccc1", "values": [{"measurement": "T/C", "setting": "endpoint: mean survival time, dose: 50.0 mg/kg/injection, schedule: Q01DX009 (ip), vehicle: saline", "value": "97 % of control"}, {"measurement": "T/C", "setting": "endpoint: mean survival time, dose: 100.0 mg/kg/injection, schedule: Q01DX009 (ip), vehicle: saline", "value": "106 % of control"}, {"measurement": "T/C", "setting": "endpoint: mean survival time, dose: 200.0 mg/kg/injection, schedule: Q01DX009 (ip), vehicle: saline", "value": "107 % of control"}]}, {"smiles": "N[C@@H](Cc1c[nH]c2ccccc12)C(=O)Nc1nncs1", "values": [{"measurement": "T/C", "setting": "endpoint: median survival time, dose: 8.35 mg/kg/injection, schedule: Q03HX027 (ip), vehicle: saline", "value": "96 % of control"}, {"measurement": "T/C", "setting": "endpoint: median survival time, dose: 16.7 mg/kg/injection, schedule: Q03HX027 (ip), vehicle: saline", "value": "100 % of control"}, {"measurement": "T/C", "setting": "endpoint: median survival time, dose: 33.4 mg/kg/injection, schedule: Q03HX027 (ip), vehicle: saline", "value": "103 % of control"}, {"measurement": "T/C", "setting": "endpoint: median survival time, dose: 47.88 mg/kg/injection, schedule: Q03HX027 (ip), vehicle: saline", "value": "107 % of control"}, {"measurement": "T/C", "setting": "endpoint: median survival time, dose: 48.0 mg/kg/injection, schedule: Q03HX027 (ip), vehicle: saline", "value": "108 % of control"}, {"measurement": "T/C", "setting": "endpoint: median survival time, dose: 50.0 mg/kg/injection, schedule: Q01DX009 (ip), vehicle: saline", "value": "98 % of control"}, {"measurement": "T/C", "setting": "endpoint: median survival time, dose: 66.7 mg/kg/injection, schedule: Q03HX027 (ip), vehicle: saline", "value": "103 % of control"}, {"measurement": "T/C", "setting": "endpoint: median survival time, dose: 79.8 mg/kg/injection, schedule: Q03HX027 (ip), vehicle: saline", "value": "113 % of control"}, {"measurement": "T/C", "setting": "endpoint: median survival time, dose: 79.92 mg/kg/injection, schedule: Q03HX027 (ip), vehicle: saline", "value": "113 % of control"}, {"measurement": "T/C", "setting": "endpoint: median survival time, dose: 100.0 mg/kg/injection, schedule: Q01DX009 (ip), vehicle: saline", "value": "97 % of control"}, {"measurement": "T/C", "setting": "endpoint: median survival time, dose: 133.2 mg/kg/injection, schedule: Q03HX027 (ip), vehicle: saline", "value": "116 % of control"}, {"measurement": "T/C", "setting": "endpoint: median survival time, dose: 200.0 mg/kg/injection, schedule: Q01DX009 (ip), vehicle: saline", "value": "105 % of control"}, {"measurement": "T/C", "setting": "endpoint: median survival time, dose: 222.0 mg/kg/injection, schedule: Q03HX027 (ip), vehicle: saline", "value": "116 % of control"}, {"measurement": "T/C", "setting": "endpoint: median survival time, dose: 369.45 mg/kg/injection, schedule: Q03HX027 (ip), vehicle: saline", "value": "87 % of control"}, {"measurement": "T/C", "setting": "endpoint: median survival time, dose: 400.0 mg/kg/injection, schedule: Q01DX009 (ip), vehicle: saline", "value": "120 % of control"}]}, {"smiles": "O=[N+]([O-])c1cc2nsnc2cc1[N+](=O)[O-]", "values": [{"measurement": "T/C", "setting": "[1]", "value": "101 % of control"}, {"measurement": "T/C", "setting": "[2]", "value": "95 % of control"}, {"measurement": "T/C", "setting": "endpoint: mean survival time, dose: 400.0 mg/kg/injection, schedule: Q04DX003 (ip), vehicle: saline with Tween-80", "value": "96 % of control"}]}, {"smiles": "O[O][Sn][c]1ccccc1", "values": [{"measurement": "T/C", "setting": "endpoint: mean survival time, dose: 50.0 mg/kg/injection, schedule: Q01DX009 (ip), vehicle: saline with Tween-80", "value": "93 % of control"}, {"measurement": "T/C", "setting": "endpoint: mean survival time, dose: 100.0 mg/kg/injection, schedule: Q01DX009 (ip), vehicle: saline with Tween-80", "value": "89 % of control"}, {"measurement": "T/C", "setting": "[1]", "value": "100 % of control"}, {"measurement": "T/C", "setting": "endpoint: mean survival time, dose: 200.0 mg/kg/injection, schedule: Q01DX009 (ip), vehicle: saline with Tween-80", "value": "91 % of control"}, {"measurement": "T/C", "setting": "[2]", "value": "97 % of control"}]}]}
